The target in experiment [1] is PHD2 enzyme (residues 181-417) (Homo sapiens (Human), UniProt Q9GZT9). Put plainly: Inhibition of PHD enzyme (LC/MS peptide hydroxylation assay). It counts as biochemical. The note with it: PHD2 (residues 181-417) 5 nM, 60 min pre-incubation; -log(IC50), IC50 molar. The essentials:
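PHD2 (5 nM final) preincubated with inhibitor 60 min at RT in 50 mM HEPES, 50 mM KCl, 0.5 mM TCEP, 2 uM FeCl2, 0.1 mg/ml BSA, pH 7.3. Reaction started with biotin-peptide (1 uM), 2-oxoglutarate (2 uM), ascorbate (1 mM), quenched at 60 min; hydroxylated product by LC/MS, reported as pIC50.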

In experiment [2] the test system is HIF1a protein in H9c2 rat cardiomyocytes. The experiment in a line: Cell-based HIF-alpha stabilization assay (inhibition of PHD in cells). Conditions: Rattus norvegicus, H9c2, 24 h, 24 hrs compound incubation, HIF1a protein by ELISA, read-out: Inhibition of PHD in cells (pEC50) (converted). Summed up:
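Rat H9c2 cardiomyocytes, cultured 24 h, were treated 24 h with an 11-point serial dilution of compound. HIF1a in whole-cell lysates was quantified by ELISA as % of the maximal desferrioxamine response. EC50 came from curve fitting; EC50pos is the concentration reaching 50% of the desferrioxamine maximum.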
Background: An ELISA detects its analyte on a solid surface through an enzyme-linked reagent.

Sequence of PHD2 enzyme (residues 181-417) (Q9GZT9 181-417): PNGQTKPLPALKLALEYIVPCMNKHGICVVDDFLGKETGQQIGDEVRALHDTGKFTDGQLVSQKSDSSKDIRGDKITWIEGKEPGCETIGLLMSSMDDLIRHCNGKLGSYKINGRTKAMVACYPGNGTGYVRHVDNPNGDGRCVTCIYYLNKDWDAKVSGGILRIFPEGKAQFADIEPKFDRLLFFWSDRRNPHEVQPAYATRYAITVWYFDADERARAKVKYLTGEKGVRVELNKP

For `Cc1cc(-n2ncc(-c3ccc(C#N)cc3)c2O)ncc1C(=O)NCCC1CCCOC1` (stereo not drawn) [Example 279, 6-(4-(4-cyanophenyl)-5-hydroxy-1H-pyrazol-1-yl)-4-methyl-N-(2-(tetrahydro-2H-pyran-3-yl)ethyl)nicotinamide], the “PHD Inhibition (pIC50)” value in experiment [1] stood at 7.1. Besides, the EC50 in experiment [2] is 2630 nM.

Turning to `Cc1cc(C#N)ccc1-c1cnn(-c2ccc(C(=O)N(C)CCN(C)C)cn2)c1O` [Example 286, 6-(4-(4-cyano-2-methylphenyl)-5-hydroxy-1H-pyrazol-1-yl)-N-(2-(dimethylamino)ethyl)-N-methylnicotinamide], the “PHD Inhibition (pIC50)” value in experiment [1] amounted to 7.94. The EC50 in experiment [2] was 603 nM.

On to `CC[C@@H](C)NC(=O)c1ccc(-n2ncc(-c3ccc(C#N)cc3C)c2O)nc1` [Example 58, (R)—N-(sec-butyl)-6-(4-(4-cyano-2-methylphenyl)-5-hydroxy-1H-pyrazol-1-yl)nicotinamide], for which the “PHD Inhibition (pIC50)” value in experiment [1] worked out at 7.16. In addition, the EC50 in experiment [2] was 158 nM.

Turning to `N#Cc1ccc(-c2cnn(-c3ccc(C(=O)N[C@H]4CC[C@@H](O)C4)cn3)c2O)cc1` [Example 258, 6-(4-(4-cyanophenyl)-5-hydroxy-1H-pyrazol-1-yl)-N-((1s,3r)-3-hydroxycyclopentyl)nicotinamide], in experiment [1], the “PHD Inhibition (pIC50)” value is 7.44. Moreover, the EC50 in experiment [2] is 813 nM.

For `COCC1(CNC(=O)c2ccc(-n3ncc(-c4ccnc(OC)c4)c3O)nc2)CCCC1` [Example 47, 6-(5-hydroxy-4-(2-methoxypyridin-4-yl)-1H-pyrazol-1-yl)-N-((1-(methoxymethyl)cyclopentyl)methyl)nicotinamide], the “PHD Inhibition (pIC50)” value in experiment [1] is 8.4. In experiment [2], the EC50 is 355 nM.

As to `Cc1c(-c2cnn(-c3ccc(C(=O)N4CC[C@@H](N(C)C)C4)cn3)c2O)ccc(C#N)c1F` [Example 317, (R)-4-(1-(5-(3-(dimethylamino)pyrrolidine-1-carbonyl)pyridin-2-yl)-5-hydroxy-1H-pyrazol-4-yl)-2-fluoro-3-methylbenzonitrile], in experiment [1], the “PHD Inhibition (pIC50)” value came out at 8.31. The EC50 in experiment [2] is 676 nM.

Take `COCCC1(NC(=O)c2ccc(-n3ncc(-c4ccc(C#N)cc4)c3O)nc2)CCCC1` [Example 354, 6-(4-(4-cyanophenyl)-5-hydroxy-1H-pyrazol-1-yl)-N-(1-(2-methoxyethyl)cyclopentyl)nicotinamide]: the “PHD Inhibition (pIC50)” value in experiment [1] is given as 8.36. Moreover, in experiment [2], the EC50 is 1580 nM.

Turning to `Cc1cc(C#N)ccc1-c1cnn(-c2ccc(C(=O)N3CCCN(C)CC3)cn2)c1O` [Example 287, 4-(5-hydroxy-1-(5-(4-methyl-1,4-diazepane-1-carbonyl)pyridin-2-yl)-1H-pyrazol-4-yl)-3-methylbenzonitrile], the “PHD Inhibition (pIC50)” value in experiment [1] was 8.10. Also, the EC50 in experiment [2] was 3550 nM.

For the compound `CCN(CC)C1CCCN(C(=O)c2ccc(-n3ncc(-c4ccc(C#N)cc4C)c3O)nc2)C1` (stereo not drawn) [Example 380, 4-(1-(5-(3-(diethylamino)piperidine-1-carbonyl)pyridin-2-yl)-5-hydroxy-1H-pyrazol-4-yl)-3-methylbenzonitrile], the “PHD Inhibition (pIC50)” value in experiment [1] was determined as 8.17. Moreover, the EC50 in experiment [2] is 575 nM.

On to `N#Cc1ccc(-c2cnn(-c3ccc(C(=O)NCCC4CCCOC4)cn3)c2O)cc1` (stereo not drawn) [Example 178, 6-(4-(4-cyanophenyl)-5-hydroxy-1H-pyrazol-1-yl)-N-(2-(tetrahydro-2H-pyran-3-yl)ethyl)nicotinamide], for which the “PHD Inhibition (pIC50)” value in experiment [1] was determined as 7.63. Moreover, the EC50 in experiment [2] was 282 nM.

Take `COc1cc(-c2cnn(-c3ccc(C(=O)NCCCn4cccn4)cn3)c2O)ccn1` [Example 43, N-(3-(1H-pyrazol-1-yl)propyl)-6-(5-hydroxy-4-(2-methoxypyridin-4-yl)-1H-pyrazol-1-yl)nicotinamide]: the “PHD Inhibition (pIC50)” value in experiment [1] was found to be 8.2. In experiment [2], the EC50 is 347 nM.

As for `Cc1cc(C#N)ccc1-c1cnn(-c2ccc(C(=O)NCC3CCN(C)CC3)cn2)c1O` [Example 94, 6-(4-(4-cyano-2-methylphenyl)-5-hydroxy-1H-pyrazol-1-yl)-N-((1-methylpiperidin-4-yl)methyl)nicotinamide], in experiment [1], the “PHD Inhibition (pIC50)” value was found to be 7.9. For the same compound, the EC50 in experiment [2] was 93.3 nM.

With `O=C(NCC1CCOCC1)c1ccc(-n2ncc(-n3ccc(=O)cc3)c2O)nc1` [Example 190, 6-(5-hydroxy-4-(4-oxopyridin-1(4H)-yl)-1H-pyrazol-1-yl)-N-((tetrahydro-2H-pyran-4-yl)methyl)nicotinamide], the “PHD Inhibition (pIC50)” value in experiment [1] is on record as 7. Also, the EC50 in experiment [2] was 15800 nM.

`COCC(NC(=O)c1ccc(-n2ncc(-c3ccc(C#N)cc3)c2O)nc1)C(C)C` (stereo not drawn) [Example 156, 6-(4-(4-cyanophenyl)-5-hydroxy-1H-pyrazol-1-yl)-N-(1-methoxy-3-methylbutan-2-yl)nicotinamide]: the “PHD Inhibition (pIC50)” value in experiment [1] came to 7.47. For the same compound, the EC50 in experiment [2] is 891 nM.

On to `Cc1cc(C#N)ccc1-c1cnn(-c2ccc(C(=O)NCC3CCCCO3)cn2)c1O` (stereo not drawn) [Example 142, 6-(4-(4-cyano-2-methylphenyl)-5-hydroxy-1H-pyrazol-1-yl)-N-((tetrahydro-2H-pyran-2-yl)methyl)nicotinamide], for which the “PHD Inhibition (pIC50)” value in experiment [1] amounted to 8.3. Also, the EC50 in experiment [2] was 85.1 nM.

`Cc1c(-c2cnn(-c3ccc(C(=O)N4CC(N5CCCCC5)C4)cn3)c2O)ccc(C#N)c1F` [Example 335, 2-fluoro-4-(5-hydroxy-1-(5-(3-(piperidin-1-yl)azetidine-1-carbonyl)pyridin-2-yl)-1H-pyrazol-4-yl)-3-methylbenzonitrile]: the “PHD Inhibition (pIC50)” value in experiment [1] came out at 8.43. Also, the EC50 in experiment [2] was 1320 nM.

For the compound `CO[C@H]1CC[C@@H](NC(=O)c2ccc(-n3ncc(-c4ccc(C#N)cc4C)c3O)nc2)CC1` [Example 119, 6-(4-(4-cyano-2-methylphenyl)-5-hydroxy-1H-pyrazol-1-yl)-N-((1 s,4s)-4-methoxycyclohexyl)nicotinamide], in experiment [1], the “PHD Inhibition (pIC50)” value is given as 7.11. Besides, the EC50 in experiment [2] is 126 nM.

For the compound `CCN1CCN(C(=O)c2ccc(-n3ncc(-c4ccc(C#N)cc4C)c3O)nc2)C[C@@H]1C` [Example 370, (S)-4-(1-(5-(4-ethyl-3-methylpiperazine-1-carbonyl)pyridin-2-yl)-5-hydroxy-1H-pyrazol-4-yl)-3-methylbenzonitrile], the “PHD Inhibition (pIC50)” value in experiment [1] stood at 8.287. Besides, the EC50 in experiment [2] was 562 nM.

Regarding `Cc1c(-c2cnn(-c3ccc(C(=O)N4CCC[C@@H](N(C)CC(F)F)C4)cn3)c2O)ccc(C#N)c1F` [Example 336, (R)-4-(1-(5-(3-((2,2-difluoroethyl)(methyl)amino)piperidine-1-carbonyl)pyridin-2-yl)-5-hydroxy-1H-pyrazol-4-yl)-2-fluoro-3-methylbenzonitrile], the “PHD Inhibition (pIC50)” value in experiment [1] is recorded as 8.53. Besides, the EC50 in experiment [2] was 977 nM.

In the case of `Cc1c(-c2cnn(-c3ccc(C(=O)N4CCN(C(C)C)[C@@H](C)C4)cn3)c2O)ccc(C#N)c1F` [Example 339, (S)-2-fluoro-4-(5-hydroxy-1-(5-(4-isopropyl-3-methylpiperazine-1-carbonyl)pyridin-2-yl)-1H-pyrazol-4-yl)-3-methylbenzonitrile], the “PHD Inhibition (pIC50)” value in experiment [1] is given as 8.29. Besides, the EC50 in experiment [2] is 2040 nM.

Consider `COc1cc(-c2cnn(-c3ccc(C(=O)NCc4ccccc4)cn3)c2O)ccn1` [Example 2, N-benzyl-6-(5-hydroxy-4-(2-methoxypyridin-4-yl)-1H-pyrazol-1-yl)nicotinamide], for which the “PHD Inhibition (pIC50)” value in experiment [1] is 7.03. The EC50 in experiment [2] was 1260 nM.

The values are drawn from patent US10407409B2, “6-(5-hydroxy-1H-pyrazol-1-yl)nicotinamide inhibitors of PHD” (Takeda Pharmaceutical Company Limited, priority 2013, dated 2019).
